The assay concerns 5637. The assay can be described thus: Inhibition of type-1 pilus-mediated Escherichia coli HB101 adhesion to human 5637 cells after 1 hr. It is filed as cell-based. The settings on record: dose or concentration not given here.

Experimental findings from ChEMBL document CHEMBL1221206, “Targeting virulence: a new paradigm for antimicrobial therapy” (Nat Chem Biol, 2007) are described below.

By inhibition is commonly meant the drop in the measured response relative to a control, in per cent. The low end stands for a response near the control, the high end for a response far below the control.

The molecule `CN(C)Cc1c(Cc2cccc3ccccc23)c(-c2ccccc2)c2n(c1=O)[C@H](C(=O)O)CS2` gave an inhibition of 90%.
